From patent US12343326B2, “Psychoactive medicines and their use for treating psychiatric and neurological conditions and disorders” (Transcend Therapeutics, Inc., priority 2021, dated 2025)

Key:
Test in all cases: β-arrestin based GPCR screen (PathHunter / GPCRmax), antagonist mode
168 GPCRs [1] = biological target: 168 GPCRs (Homo sapiens, UniProt P55085)
168 GPCRs [2] = biological target: T1, 168 GPCRs (Homo sapiens, UniProt P08173); conditions: CHRM4, Antagonist
T1 sequence (P08173 1-479): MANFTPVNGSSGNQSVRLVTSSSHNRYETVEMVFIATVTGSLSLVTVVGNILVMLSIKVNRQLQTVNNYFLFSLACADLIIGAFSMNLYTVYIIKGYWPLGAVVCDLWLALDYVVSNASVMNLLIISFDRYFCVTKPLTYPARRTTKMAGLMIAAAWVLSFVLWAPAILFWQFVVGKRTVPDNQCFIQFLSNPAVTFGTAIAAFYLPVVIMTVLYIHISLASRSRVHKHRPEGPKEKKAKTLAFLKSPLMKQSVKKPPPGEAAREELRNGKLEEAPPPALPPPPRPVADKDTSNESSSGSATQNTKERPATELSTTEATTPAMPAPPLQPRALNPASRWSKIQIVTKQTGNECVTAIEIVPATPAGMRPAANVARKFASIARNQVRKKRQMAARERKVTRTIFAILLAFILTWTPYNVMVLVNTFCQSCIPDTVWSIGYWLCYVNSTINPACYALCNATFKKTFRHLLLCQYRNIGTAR

168 GPCRs [3] = biological target: 168 GPCRs (Homo sapiens, UniProt P41143)
168 GPCRs [4] = biological target: 168 GPCRs (Homo sapiens, UniProt Q9GZQ6)
168 GPCRs [5] = biological target: 168 GPCRs (Homo sapiens, UniProt P41968); conditions: MC3R
168 GPCRs [6] = biological target: 168 GPCRs (Homo sapiens, UniProt P35367)
168 GPCRs [7] = biological target: 168 GPCRs (Homo sapiens, UniProt P43119); conditions: PTGIR
168 GPCRs [8] = biological target: 168 GPCRs (Homo sapiens, UniProt P47901); conditions: AVPR1B, Antagonist
168 GPCRs [9] = biological target: 168 GPCRs (Homo sapiens, UniProt P41587)
168 GPCRs [10] = biological target: 168 GPCRs (Homo sapiens, UniProt P48039); conditions: MTNR1A
168 GPCRs [11] = biological target: 168 GPCRs (Homo sapiens, UniProt P47900)
168 GPCRs [12] = biological target: 168 GPCRs (Homo sapiens, UniProt O95838); conditions: GLP2R
168 GPCRs [13] = biological target: 168 GPCRs (Homo sapiens, UniProt P08172); conditions: CHRM2, Antagonist
168 GPCRs [14] = biological target: 168 GPCRs (Homo sapiens, UniProt P49682)
168 GPCRs [15] = biological target: 168 GPCRs (Homo sapiens, UniProt Q16602); conditions: Antagonist
168 GPCRs [16] = biological target: 168 GPCRs (Homo sapiens, UniProt P21453)
168 GPCRs [17] = biological target: T2, 168 GPCRs (Homo sapiens, UniProt P0DMS8); conditions: ADORA3, Antagonist
T2 sequence (P0DMS8 1-318): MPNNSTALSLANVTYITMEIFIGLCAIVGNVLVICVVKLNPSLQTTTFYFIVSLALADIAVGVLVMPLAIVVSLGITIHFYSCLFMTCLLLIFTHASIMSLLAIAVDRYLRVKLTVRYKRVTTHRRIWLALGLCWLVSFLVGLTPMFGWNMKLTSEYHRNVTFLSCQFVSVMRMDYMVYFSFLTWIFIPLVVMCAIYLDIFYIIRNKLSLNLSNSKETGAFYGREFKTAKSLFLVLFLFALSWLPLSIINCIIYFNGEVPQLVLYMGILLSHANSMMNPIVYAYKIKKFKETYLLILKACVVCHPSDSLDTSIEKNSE

Chain of 168 GPCRs (Homo sapiens, UniProt Q16602) (Q16602 23-461): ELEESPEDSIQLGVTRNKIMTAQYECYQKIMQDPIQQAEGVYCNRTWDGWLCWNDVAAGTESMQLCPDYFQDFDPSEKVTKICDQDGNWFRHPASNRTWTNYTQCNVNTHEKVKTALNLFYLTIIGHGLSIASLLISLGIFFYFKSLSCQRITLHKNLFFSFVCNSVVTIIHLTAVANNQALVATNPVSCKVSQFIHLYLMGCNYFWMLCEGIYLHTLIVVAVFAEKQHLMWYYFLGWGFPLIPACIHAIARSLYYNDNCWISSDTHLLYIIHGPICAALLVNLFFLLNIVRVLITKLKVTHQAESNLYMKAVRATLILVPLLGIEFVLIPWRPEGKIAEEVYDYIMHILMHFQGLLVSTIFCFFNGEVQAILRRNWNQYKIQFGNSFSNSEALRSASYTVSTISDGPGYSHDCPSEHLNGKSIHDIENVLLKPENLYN
Chain of 168 GPCRs (Homo sapiens, UniProt Q9GZQ6) (Q9GZQ6 whole entry): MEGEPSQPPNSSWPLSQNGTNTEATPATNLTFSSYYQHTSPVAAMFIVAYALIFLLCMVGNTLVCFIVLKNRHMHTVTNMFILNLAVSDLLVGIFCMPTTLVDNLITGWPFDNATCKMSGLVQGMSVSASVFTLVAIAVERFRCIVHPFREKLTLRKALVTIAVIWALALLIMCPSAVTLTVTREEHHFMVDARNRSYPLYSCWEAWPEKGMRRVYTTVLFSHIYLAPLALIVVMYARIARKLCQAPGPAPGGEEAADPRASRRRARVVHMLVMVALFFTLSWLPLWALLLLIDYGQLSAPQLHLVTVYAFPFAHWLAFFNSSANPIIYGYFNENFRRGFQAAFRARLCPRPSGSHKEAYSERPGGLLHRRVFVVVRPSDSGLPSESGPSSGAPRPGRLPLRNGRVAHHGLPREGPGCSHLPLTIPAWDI
Chain of 168 GPCRs (Homo sapiens, UniProt P48039) (P48039 whole entry): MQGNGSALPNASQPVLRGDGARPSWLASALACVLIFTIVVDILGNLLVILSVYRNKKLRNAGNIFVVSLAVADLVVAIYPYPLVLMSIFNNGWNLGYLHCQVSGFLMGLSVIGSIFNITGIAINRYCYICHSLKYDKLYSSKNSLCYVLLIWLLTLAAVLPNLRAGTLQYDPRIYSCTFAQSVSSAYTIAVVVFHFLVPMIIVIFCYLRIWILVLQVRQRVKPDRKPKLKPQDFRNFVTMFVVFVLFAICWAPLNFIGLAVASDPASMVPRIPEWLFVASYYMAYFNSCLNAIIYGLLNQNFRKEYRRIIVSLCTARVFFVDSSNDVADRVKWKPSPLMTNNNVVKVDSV
Chain of 168 GPCRs (Homo sapiens, UniProt P55085) (P55085 26-397): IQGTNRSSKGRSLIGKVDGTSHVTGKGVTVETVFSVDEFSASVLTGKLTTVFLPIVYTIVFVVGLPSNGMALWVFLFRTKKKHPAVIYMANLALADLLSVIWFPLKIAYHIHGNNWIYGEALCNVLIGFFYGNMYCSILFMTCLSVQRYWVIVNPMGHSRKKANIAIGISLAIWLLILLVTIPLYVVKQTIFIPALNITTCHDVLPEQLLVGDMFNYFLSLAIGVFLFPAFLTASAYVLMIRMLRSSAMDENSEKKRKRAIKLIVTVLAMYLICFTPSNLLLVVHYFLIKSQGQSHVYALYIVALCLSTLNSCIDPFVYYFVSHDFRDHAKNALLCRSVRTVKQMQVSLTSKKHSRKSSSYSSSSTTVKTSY
Chain of 168 GPCRs (Homo sapiens, UniProt P47900) (P47900 whole entry): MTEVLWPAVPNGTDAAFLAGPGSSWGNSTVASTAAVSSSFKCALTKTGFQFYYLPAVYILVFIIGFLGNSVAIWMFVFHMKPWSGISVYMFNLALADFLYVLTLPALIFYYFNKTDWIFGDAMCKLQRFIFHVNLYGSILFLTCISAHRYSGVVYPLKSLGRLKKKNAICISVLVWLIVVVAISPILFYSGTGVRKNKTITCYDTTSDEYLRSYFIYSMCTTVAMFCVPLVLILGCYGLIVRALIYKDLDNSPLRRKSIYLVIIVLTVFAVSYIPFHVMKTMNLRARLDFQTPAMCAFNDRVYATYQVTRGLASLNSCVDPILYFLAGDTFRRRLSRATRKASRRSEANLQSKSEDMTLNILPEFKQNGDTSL
Chain of 168 GPCRs (Homo sapiens, UniProt P35367) (P35367 whole entry): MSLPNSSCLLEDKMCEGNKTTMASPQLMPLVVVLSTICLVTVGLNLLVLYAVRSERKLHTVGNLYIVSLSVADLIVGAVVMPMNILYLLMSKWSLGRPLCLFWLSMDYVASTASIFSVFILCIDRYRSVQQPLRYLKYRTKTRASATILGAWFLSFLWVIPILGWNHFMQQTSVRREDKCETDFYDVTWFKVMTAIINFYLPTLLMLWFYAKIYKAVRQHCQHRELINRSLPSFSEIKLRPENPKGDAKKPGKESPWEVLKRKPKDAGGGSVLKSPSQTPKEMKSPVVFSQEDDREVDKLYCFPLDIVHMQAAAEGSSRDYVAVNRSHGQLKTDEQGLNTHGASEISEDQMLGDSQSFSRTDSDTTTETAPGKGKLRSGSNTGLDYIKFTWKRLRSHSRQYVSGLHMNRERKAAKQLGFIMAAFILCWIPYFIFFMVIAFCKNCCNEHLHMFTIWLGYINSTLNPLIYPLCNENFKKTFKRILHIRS
Chain of 168 GPCRs (Homo sapiens, UniProt O95838) (O95838 whole entry): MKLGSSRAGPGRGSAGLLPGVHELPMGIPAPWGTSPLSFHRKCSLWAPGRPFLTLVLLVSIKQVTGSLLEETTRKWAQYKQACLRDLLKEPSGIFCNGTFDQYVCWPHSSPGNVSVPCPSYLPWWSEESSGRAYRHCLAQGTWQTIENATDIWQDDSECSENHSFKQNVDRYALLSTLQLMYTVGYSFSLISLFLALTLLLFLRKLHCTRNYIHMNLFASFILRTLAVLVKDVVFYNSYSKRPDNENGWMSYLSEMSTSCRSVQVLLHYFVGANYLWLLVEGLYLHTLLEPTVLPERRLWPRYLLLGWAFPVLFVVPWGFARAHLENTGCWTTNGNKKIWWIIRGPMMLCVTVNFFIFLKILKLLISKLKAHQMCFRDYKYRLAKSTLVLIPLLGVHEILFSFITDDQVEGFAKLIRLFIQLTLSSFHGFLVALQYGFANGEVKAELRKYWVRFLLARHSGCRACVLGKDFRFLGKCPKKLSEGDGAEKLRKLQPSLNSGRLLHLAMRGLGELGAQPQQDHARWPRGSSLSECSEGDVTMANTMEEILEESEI
Chain of 168 GPCRs (Homo sapiens, UniProt P49682) (P49682 whole entry): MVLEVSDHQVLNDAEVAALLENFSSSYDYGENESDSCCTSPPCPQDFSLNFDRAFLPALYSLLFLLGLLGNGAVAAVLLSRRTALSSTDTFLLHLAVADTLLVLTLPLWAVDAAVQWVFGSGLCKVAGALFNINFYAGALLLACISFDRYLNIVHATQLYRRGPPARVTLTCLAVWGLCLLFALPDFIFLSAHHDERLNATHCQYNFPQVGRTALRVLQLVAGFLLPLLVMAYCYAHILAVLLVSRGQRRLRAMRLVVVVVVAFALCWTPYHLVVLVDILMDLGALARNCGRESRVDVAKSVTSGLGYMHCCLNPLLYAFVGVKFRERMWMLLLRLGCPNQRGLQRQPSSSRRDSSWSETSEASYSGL
Chain of 168 GPCRs (Homo sapiens, UniProt P47901) (P47901 whole entry): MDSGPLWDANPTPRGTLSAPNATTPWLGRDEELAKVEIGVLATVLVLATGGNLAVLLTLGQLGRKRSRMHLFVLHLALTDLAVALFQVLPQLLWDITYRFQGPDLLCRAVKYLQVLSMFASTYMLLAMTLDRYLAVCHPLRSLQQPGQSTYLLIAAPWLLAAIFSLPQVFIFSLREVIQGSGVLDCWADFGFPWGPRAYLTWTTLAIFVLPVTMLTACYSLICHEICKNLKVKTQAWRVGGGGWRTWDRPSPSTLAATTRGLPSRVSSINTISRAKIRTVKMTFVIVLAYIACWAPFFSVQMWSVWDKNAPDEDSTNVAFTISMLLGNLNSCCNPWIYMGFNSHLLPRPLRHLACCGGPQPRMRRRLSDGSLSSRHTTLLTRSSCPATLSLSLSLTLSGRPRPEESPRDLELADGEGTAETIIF
Chain of 168 GPCRs (Homo sapiens, UniProt P41587) (P41587 24-438): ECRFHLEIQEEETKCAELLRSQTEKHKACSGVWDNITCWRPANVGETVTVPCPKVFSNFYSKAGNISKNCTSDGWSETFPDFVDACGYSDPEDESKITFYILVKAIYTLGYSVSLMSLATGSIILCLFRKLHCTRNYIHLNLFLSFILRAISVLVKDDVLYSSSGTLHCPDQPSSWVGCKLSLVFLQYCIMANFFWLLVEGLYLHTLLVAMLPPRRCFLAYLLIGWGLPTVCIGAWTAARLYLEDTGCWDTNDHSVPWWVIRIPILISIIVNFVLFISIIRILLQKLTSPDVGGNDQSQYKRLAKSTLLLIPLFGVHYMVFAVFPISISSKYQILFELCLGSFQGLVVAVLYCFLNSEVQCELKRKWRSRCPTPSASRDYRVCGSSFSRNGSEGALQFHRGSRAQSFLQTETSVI
Chain of 168 GPCRs (Homo sapiens, UniProt P41968) (P41968 whole entry): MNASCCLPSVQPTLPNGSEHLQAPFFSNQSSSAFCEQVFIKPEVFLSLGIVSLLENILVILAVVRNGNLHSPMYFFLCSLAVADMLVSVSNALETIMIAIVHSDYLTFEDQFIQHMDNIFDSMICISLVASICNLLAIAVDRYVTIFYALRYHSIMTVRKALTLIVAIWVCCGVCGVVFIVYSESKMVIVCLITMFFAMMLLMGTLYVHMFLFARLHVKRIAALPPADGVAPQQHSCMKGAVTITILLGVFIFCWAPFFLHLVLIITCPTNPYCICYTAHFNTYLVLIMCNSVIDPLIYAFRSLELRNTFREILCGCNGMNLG
Chain of 168 GPCRs (Homo sapiens, UniProt P43119) (P43119 whole entry): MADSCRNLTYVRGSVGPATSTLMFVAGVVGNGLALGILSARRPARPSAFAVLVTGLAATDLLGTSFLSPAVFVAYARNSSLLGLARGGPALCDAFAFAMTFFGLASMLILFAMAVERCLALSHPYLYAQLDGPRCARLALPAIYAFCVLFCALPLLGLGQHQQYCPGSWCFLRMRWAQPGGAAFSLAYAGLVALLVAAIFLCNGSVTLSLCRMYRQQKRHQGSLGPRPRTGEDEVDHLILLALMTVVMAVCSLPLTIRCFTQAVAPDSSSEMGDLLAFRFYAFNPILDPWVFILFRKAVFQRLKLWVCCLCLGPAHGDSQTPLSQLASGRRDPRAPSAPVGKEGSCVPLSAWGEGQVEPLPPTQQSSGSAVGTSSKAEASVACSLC

Q: Which results are given for `CNC(C)C(=O)c1ccc2c(c1)OCO2` (centres unmarked) [methylone, 3,4-methylenedioxy-N-methylcathinone]?
A: activity at 10 µM (168 GPCRs [1]; F2RL1, Antagonist mode, 10 uM): 16.2%; activity at 1 µM (168 GPCRs [1]; F2RL1, Antagonist, 1 uM): -26.8%; activity at 1 µM (168 GPCRs [2]; 1 uM): 10.2%; activity at 10 µM (168 GPCRs [2]; 10 uM): 6.7%; activity at 10 µM (168 GPCRs [3]; OPRD1, Antagonist mode, 10 uM): 3.5%; activity at 1 µM (168 GPCRs [3]; OPRD1, Antagonist, 1 uM): -2.7%; activity at 10 µM (168 GPCRs [4]; NPFFR1, Antagonist mode, 10 uM): 27.1%; activity at 1 µM (168 GPCRs [4]; NPFFR1, Antagonist, 1 uM): 32%; activity at 10 µM (168 GPCRs [5]; Antagonist mode, 10 uM): 0.3%; activity at 1 µM (168 GPCRs [5]; Antagonist, 1 uM): -5.7%; activity at 10 µM (168 GPCRs [6]; HRH1, Antagonist mode, 10 uM): 2.2%; activity at 1 µM (168 GPCRs [6]; HRH1, Antagonist, 1 uM): -18%; activity at 10 µM (168 GPCRs [7]; Antagonist mode, 10 uM): -21.5%; activity at 1 µM (168 GPCRs [7]; Antagonist, 1 uM): 12.4%; activity at 1 µM (168 GPCRs [8]; 1 uM): 9.8%; activity at 10 µM (168 GPCRs [8]; 10 uM): 3.5%; activity at 10 µM (168 GPCRs [9]; VIPR2, Antagonist mode, 10 uM): -2.6%; activity at 1 µM (168 GPCRs [9]; VIPR2, Antagonist, 1 uM): -1.5%; activity at 10 µM (168 GPCRs [10]; Antagonist mode, 10 uM): 7.8%; activity at 1 µM (168 GPCRs [10]; Antagonist, 1 uM): 30.8%; activity at 10 µM (168 GPCRs [11]; P2RY1, Antagonist mode, 10 uM): 14.9%; activity at 1 µM (168 GPCRs [11]; P2RY1, Antagonist, 1 uM): 14.5%; activity at 10 µM (168 GPCRs [12]; Antagonist mode, 10 uM): 5.4%; activity at 1 µM (168 GPCRs [12]; Antagonist, 1 uM): 5.4%; activity at 1 µM (168 GPCRs [13]; 1 uM): -18.5%; activity at 10 µM (168 GPCRs [13]; 10 uM): -7.4%; activity at 10 µM (168 GPCRs [14]; CXCR3, Antagonist mode, 10 uM): -3.9%; activity at 1 µM (168 GPCRs [14]; CXCR3, Antagonist, 1 uM): 4.5%; activity at 1 µM (168 GPCRs [15]; CALCRL-RAMP1): 4.7%; activity at 10 µM (168 GPCRs [15]; CALCRL-RAMP1): 7%; activity at 1 µM (168 GPCRs [15]; CALCRL-RAMP2): 19.1%; activity at 10 µM (168 GPCRs [15]; CALCRL-RAMP2): 7%; activity at 1 µM (168 GPCRs [15]; CALCRL-RAMP3): -18.5%; activity at 10 µM (168 GPCRs [15]; CALCRL-RAMP3): -7.5%; activity at 10 µM (168 GPCRs [16]; EDG1, Antagonist mode, 10 uM): 10.5%; activity at 1 µM (168 GPCRs [16]; EDG1, Antagonist, 1 uM): 12.4%; activity at 1 µM (168 GPCRs [17]; 1 uM): 11.3%; activity at 10 µM (168 GPCRs [17]; 10 uM): 7.7%
